ChEMBL document CHEMBL3632577, “Lead optimization of the VU0486321 series of mGlu1 PAMs. Part 1: SAR of modifications to the central aryl core” (Bioorg Med Chem Lett, 2015)
pEC50: −log10 of the molar value.

Key:
[1] = target: T1, Metabotropic glutamate receptor 1 (Homo sapiens, UniProt Q13255); assay: Positive allosteric modulation of human mGluR1 by calcium mobilization assay; assay type: functional
Target sequence in this assay (Q13255 whole entry): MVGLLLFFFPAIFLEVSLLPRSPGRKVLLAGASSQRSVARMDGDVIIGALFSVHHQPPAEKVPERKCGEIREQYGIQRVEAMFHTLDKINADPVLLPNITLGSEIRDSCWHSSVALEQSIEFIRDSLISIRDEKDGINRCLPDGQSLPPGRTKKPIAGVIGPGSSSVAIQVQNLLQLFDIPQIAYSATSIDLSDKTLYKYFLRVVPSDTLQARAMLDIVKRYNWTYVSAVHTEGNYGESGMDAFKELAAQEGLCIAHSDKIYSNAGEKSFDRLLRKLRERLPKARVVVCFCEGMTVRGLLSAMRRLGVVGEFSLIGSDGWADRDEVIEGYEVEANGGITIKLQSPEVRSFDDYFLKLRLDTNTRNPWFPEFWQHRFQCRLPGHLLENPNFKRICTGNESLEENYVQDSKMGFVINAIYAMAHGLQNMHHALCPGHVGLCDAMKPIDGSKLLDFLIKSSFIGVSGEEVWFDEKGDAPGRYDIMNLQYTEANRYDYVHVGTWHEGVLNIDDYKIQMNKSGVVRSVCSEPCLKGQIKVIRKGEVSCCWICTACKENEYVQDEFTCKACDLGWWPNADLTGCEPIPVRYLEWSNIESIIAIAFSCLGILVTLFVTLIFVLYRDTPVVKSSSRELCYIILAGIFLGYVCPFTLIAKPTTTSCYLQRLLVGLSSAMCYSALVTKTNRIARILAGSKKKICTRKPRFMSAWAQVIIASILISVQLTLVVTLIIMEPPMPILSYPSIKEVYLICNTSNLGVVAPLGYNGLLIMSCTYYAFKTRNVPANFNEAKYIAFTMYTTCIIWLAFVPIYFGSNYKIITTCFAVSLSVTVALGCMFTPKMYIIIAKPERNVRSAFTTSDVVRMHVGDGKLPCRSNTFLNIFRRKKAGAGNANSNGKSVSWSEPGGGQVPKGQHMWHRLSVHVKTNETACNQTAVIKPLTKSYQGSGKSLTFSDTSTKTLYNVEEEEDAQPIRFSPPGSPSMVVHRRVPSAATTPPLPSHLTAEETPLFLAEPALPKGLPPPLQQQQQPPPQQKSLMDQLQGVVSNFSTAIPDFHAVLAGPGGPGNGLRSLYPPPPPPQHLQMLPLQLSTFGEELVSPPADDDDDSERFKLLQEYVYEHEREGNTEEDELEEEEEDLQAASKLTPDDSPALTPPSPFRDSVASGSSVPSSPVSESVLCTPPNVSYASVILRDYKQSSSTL

[2] = target: T2, Metabotropic glutamate receptor 4 (Homo sapiens, UniProt Q14833); assay: Positive allosteric modulation of human mGluR4 by calcium mobilization assay; assay type: functional
[3] = target: T1, Metabotropic glutamate receptor 1; assay: Positive allosteric modulation of human mGluR1 by calcium mobilization assay relative to control; assay type: functional
Target sequence in this assay (Q13255 19-1194 limits assumed): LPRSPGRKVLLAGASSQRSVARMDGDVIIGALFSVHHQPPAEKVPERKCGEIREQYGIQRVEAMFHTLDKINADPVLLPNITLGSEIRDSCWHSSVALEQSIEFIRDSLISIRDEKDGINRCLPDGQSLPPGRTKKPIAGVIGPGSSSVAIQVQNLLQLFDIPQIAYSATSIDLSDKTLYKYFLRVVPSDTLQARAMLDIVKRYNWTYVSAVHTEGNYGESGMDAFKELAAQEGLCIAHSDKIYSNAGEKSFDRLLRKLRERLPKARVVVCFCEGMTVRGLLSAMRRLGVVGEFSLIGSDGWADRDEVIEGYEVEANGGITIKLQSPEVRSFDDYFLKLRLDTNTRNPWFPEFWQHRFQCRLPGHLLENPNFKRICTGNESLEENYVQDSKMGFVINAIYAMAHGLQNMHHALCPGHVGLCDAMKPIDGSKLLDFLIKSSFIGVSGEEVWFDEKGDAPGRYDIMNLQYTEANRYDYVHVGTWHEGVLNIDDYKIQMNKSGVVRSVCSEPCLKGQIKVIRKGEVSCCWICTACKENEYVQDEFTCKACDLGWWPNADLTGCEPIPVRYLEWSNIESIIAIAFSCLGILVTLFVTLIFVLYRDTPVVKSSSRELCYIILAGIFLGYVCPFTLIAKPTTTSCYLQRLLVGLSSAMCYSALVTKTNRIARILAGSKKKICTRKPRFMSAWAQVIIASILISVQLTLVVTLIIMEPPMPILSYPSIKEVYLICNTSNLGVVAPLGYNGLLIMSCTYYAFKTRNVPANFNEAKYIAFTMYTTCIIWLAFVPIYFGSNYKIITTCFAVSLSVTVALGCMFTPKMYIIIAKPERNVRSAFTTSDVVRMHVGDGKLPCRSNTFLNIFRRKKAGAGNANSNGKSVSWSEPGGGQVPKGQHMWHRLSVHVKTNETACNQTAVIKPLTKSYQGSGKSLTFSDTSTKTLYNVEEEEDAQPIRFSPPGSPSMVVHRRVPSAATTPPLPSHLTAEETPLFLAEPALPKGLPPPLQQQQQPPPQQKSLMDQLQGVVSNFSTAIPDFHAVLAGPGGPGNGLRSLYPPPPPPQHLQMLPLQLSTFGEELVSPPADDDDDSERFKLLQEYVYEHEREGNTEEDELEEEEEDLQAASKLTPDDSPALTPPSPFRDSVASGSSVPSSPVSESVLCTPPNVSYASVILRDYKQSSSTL

[4] = test system: Plasma; assay: Fraction unbound in rat plasma; assay type: ADME, cell-free
[5] = test system: Plasma; assay: Fraction unbound in human plasma; assay type: ADME, cell-free
[6] = test system: Rattus norvegicus; assay: Ratio of drug level in plasma to brain in rat at 0.2 mg/kg after 15 mins by cassette study; details: in vivo, 0.25 h
[7] = test system: Brain; assay: Fraction unbound in rat brain; assay type: ADME, tissue-based
[8] = target: T2, Metabotropic glutamate receptor 4; assay: Positive allosteric modulation of human mGluR4 by calcium mobilization assay relative to PHCCC; assay type: functional
[9] = species: Homo sapiens; assay: Selectivity ratio of EC50 for human mGluR4 to EC50 for human mGluR1

T2 sequence (Q14833 whole entry): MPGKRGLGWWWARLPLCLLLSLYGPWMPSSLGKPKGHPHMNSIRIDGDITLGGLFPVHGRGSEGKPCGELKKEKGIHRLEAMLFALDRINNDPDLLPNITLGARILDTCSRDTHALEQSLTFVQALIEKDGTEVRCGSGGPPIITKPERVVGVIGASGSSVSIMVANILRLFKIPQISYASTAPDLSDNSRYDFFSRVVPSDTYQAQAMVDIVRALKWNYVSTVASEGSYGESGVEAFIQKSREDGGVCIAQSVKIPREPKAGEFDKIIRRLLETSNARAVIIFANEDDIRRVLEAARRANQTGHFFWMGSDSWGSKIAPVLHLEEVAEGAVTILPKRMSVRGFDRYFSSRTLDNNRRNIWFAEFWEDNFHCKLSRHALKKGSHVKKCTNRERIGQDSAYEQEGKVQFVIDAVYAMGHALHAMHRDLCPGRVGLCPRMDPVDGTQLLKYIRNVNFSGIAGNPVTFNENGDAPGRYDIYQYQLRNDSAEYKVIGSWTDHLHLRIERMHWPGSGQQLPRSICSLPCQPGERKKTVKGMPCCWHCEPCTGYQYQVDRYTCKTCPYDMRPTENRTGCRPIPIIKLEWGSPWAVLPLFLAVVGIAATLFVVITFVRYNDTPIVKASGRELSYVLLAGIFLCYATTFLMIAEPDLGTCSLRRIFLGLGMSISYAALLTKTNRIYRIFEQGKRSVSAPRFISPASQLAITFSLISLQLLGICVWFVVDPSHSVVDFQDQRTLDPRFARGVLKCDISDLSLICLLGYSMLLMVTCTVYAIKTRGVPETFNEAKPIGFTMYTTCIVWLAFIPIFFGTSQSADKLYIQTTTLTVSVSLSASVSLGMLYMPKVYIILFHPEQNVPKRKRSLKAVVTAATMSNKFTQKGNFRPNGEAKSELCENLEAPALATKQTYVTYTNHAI

Row | pEC50 [1] | pEC50 ([1]; read-out: EC50) | pEC50 [2] | %max [3] [%] | Fu [4] [%] | Fu [5] [%] | Ratio [6] | Fu [7] [%] | %max [8] [%] | Ratio EC50 [9] | SMILES
1 | < 5.00 | < 5.00 | < 5.00 | – | – | – | – | – | – | – | Cc1ccoc1C(=O)Nc1ccc(N2C(=O)c3ccccc3C2=O)cn1
2 | < 5.00 | < 5.00 | < 5.00 | – | – | – | – | – | – | – | Cc1ccoc1C(=O)Nc1ccc(N2C(=O)c3ccccc3C2=O)cc1C(F)(F)F
3 | 7.54 | 7.54 | < 5.00 | 68 | < 1 | < 1 | 0.12 | < 1 | – | – | Cc1ccoc1C(=O)Nc1ccc(N2C(=O)c3ccccc3C2=O)cc1Cl
4 | 6.41 | 6.41 | < 5.00 | 80 | – | – | – | – | – | – | Cc1ccoc1C(=O)Nc1ccc(N2C(=O)c3ccccc3C2=O)nc1
5 | 7.67 | 7.68 | 6.37 | 100 | – | – | – | – | 122 | 19.8 | Cc1cc(NC(=O)c2occc2C)ccc1N1C(=O)c2cccc(C)c2C1=O
6 | 7.82 | 7.82 | 6.22 | 90 | – | – | – | – | 52 | 40.6 | Cc1cc(N2C(=O)c3ccccc3C2=O)ccc1NC(=O)c1occc1C
7 | < 5.00 | < 5.00 | < 5.00 | – | – | – | – | – | – | – | Cc1ccoc1C(=O)Nc1ncc(N2C(=O)c3ccccc3C2=O)cn1
8 | 7.65 | 7.66 | 6.58 | 101 | – | – | – | – | 65 | 11.9 | Cc1ccoc1C(=O)Nc1ccc(N2C(=O)c3ccccc3C2=O)c(F)c1
9 | 6.84 | 6.84 | 5.71 | 103 | – | – | – | – | 73 | 13.4 | COc1cc(NC(=O)c2occc2C)ccc1N1C(=O)c2cccc(F)c2C1=O
10 | 7.90 | 7.89 | < 5.00 | 84 | < 1 | < 1 | 1.57 | < 1 | – | – | Cc1ccoc1C(=O)Nc1ccc(N2C(=O)c3ccccc3C2=O)cc1F
11 | 7.54 | 7.54 | 6.32 | 101 | – | – | – | – | 35 | 16.7 | Cc1ccoc1C(=O)Nc1ccc(N2C(=O)c3cccc(Cl)c3C2=O)cc1
12 | 7.69 | 7.70 | 6.45 | 99 | – | – | – | – | 54 | 17.4 | Cc1ccoc1C(=O)Nc1ccc(N2C(=O)c3ccccc3C2=O)c2ccccc12
13 | 7.36 | 7.36 | 6.42 | 96 | – | – | – | – | 34 | 8.6 | Cc1ccoc1C(=O)Nc1ccc(N2C(=O)c3cccc(F)c3C2=O)cc1
14 | 6.81 | 6.81 | 5.54 | 110 | – | – | – | – | 80 | 18.5 | Cc1ccoc1C(=O)Nc1ccc(N2C(=O)c3cccc(F)c3C2=O)c(C(F)(F)F)c1
15 | 7.02 | 7.02 | 5.30 | 105 | – | – | – | – | 100 | 52.7 | Cc1ccoc1C(=O)Nc1ccc(N2C(=O)c3cccc(C)c3C2=O)nc1
16 | 7.31 | 7.31 | 6.05 | 94 | – | – | – | – | 107 | 18 | COc1cc(NC(=O)c2occc2C)ccc1N1C(=O)c2cccc(C)c2C1=O
17 | 7.32 | 7.32 | < 5.00 | 82 | – | – | – | – | – | – | Cc1ccoc1C(=O)Nc1ccc(N2C(=O)c3ccccc3C2=O)cc1
18 | 6.12 | 6.12 | 5.35 | 111 | – | – | – | – | 104 | 5.95 | Cc1ccoc1C(=O)Nc1cnc(N2C(=O)c3cccc(C)c3C2=O)nc1
19 | 6.91 | 6.91 | 5.18 | 108 | – | – | – | – | 86 | 54.1 | Cc1ccoc1C(=O)Nc1ccc(N2C(=O)c3ccccc3C2=O)c(C(F)(F)F)c1
20 | 7.31 | 7.31 | 5.96 | 95 | – | – | – | – | 86 | 22.4 | Cc1cc(NC(=O)c2occc2C)ccc1N1C(=O)c2cccc(F)c2C1=O

Row | pEC50 [1] | pEC50 ([1]; read-out: EC50) | pEC50 [2] | %max [3] [%] | Fu [4] [%] | Fu [5] [%] | Ratio [6] | Fu [7] [%] | %max [8] [%] | Ratio EC50 [9] | SMILES
21 | 6.27 | 6.28 | 5.24 | 117 | – | – | – | – | 109 | 10.8 | Cc1ccoc1C(=O)Nc1ccc(N2C(=O)c3cccc(C)c3C2=O)c(C(F)(F)F)c1
22 | 7.31 | 7.31 | 6.00 | 117 | – | – | – | – | 127 | 20.5 | Cc1cc(NC(=O)c2occc2C)ccc1N1C(=O)c2cccc(Cl)c2C1=O
23 | 7.65 | 7.64 | 6.29 | 92 | – | – | – | – | 102 | 22.8 | Cc1ccoc1C(=O)Nc1ccc(N2C(=O)c3cccc(Cl)c3C2=O)c2ccccc12
24 | 6.70 | 6.70 | 5.45 | 93 | – | – | – | – | 19 | 17.9 | Cc1ccoc1C(=O)Nc1ccc(N2C(=O)c3cccc(F)c3C2=O)nc1
25 | 7.74 | 7.74 | 6.19 | 93 | – | – | – | – | 103 | 36.1 | COc1cc(NC(=O)c2occc2C)ccc1N1C(=O)c2cccc(Cl)c2C1=O
26 | 7.05 | 7.05 | 6.05 | 105 | – | – | – | – | 75 | 9.9 | Cc1cc(NC(=O)c2occc2C)ccc1N1C(=O)c2ccccc2C1=O
27 | 6.98 | 6.97 | 5.61 | 105 | – | – | – | – | 120 | 23.3 | Cc1ccoc1C(=O)Nc1ccc(N2C(=O)c3cccc(Cl)c3C2=O)c(C(F)(F)F)c1
28 | 7.56 | 7.55 | 6.58 | 100 | – | – | – | – | 93 | 9.5 | Cc1ccoc1C(=O)Nc1ccc(N2C(=O)c3cccc(Cl)c3C2=O)c(F)c1
29 | 7.80 | 7.80 | 6.37 | 88 | – | – | – | – | 103 | 27.3 | Cc1ccoc1C(=O)Nc1ccc(N2C(=O)c3cccc(C)c3C2=O)c2ccccc12
30 | 7.46 | 7.46 | 6.17 | 104 | – | – | – | – | 78 | 19.3 | Cc1ccoc1C(=O)Nc1ccc(N2C(=O)c3cccc(F)c3C2=O)c(F)c1
31 | 6.48 | 6.48 | < 5.00 | 80 | – | – | – | – | – | – | COc1cc(N2C(=O)c3ccccc3C2=O)ccc1NC(=O)c1occc1C
32 | 7.79 | 7.80 | 6.46 | 108 | – | – | – | – | 62 | 21.7 | Cc1ccoc1C(=O)Nc1ccc(N2C(=O)c3cccc(C)c3C2=O)cc1
33 | 6.68 | 6.68 | 5.60 | 84 | – | – | – | – | 45 | 12.2 | Cc1ccoc1C(=O)Nc1cnc(N2C(=O)c3cccc(Cl)c3C2=O)nc1
34 | 7.71 | 7.70 | 6.09 | 90 | – | – | – | – | 83 | 41.1 | Cc1ccoc1C(=O)Nc1ccc(N2C(=O)c3cccc(F)c3C2=O)c2ccccc12
35 | 7.46 | 7.46 | 5.95 | 91 | – | – | – | – | 44 | 31.9 | Cc1ccoc1C(=O)Nc1ccc(N2C(=O)c3cccc(Cl)c3C2=O)nc1
36 | 5.27 | 5.27 | < 5.00 | 99 | – | – | – | – | 24 | – | Cc1ccoc1C(=O)Nc1cnc(N2C(=O)c3cccc(F)c3C2=O)nc1
37 | 7.33 | 7.34 | 5.93 | 96 | – | – | – | – | 50 | 25.6 | COc1cc(NC(=O)c2occc2C)ccc1N1C(=O)c2ccccc2C1=O
38 | 5.33 | 5.34 | 5.33 | 89 | – | – | – | – | 23 | 1.01 | Cc1ccoc1C(=O)Nc1cnc(N2C(=O)c3ccccc3C2=O)nc1
39 | 7.58 | 7.59 | 6.54 | 107 | – | – | – | – | 102 | 11 | Cc1ccoc1C(=O)Nc1ccc(N2C(=O)c3cccc(C)c3C2=O)c(F)c1
